Test results as given in patent US20040228906A1 (priority 2001, published 2004).
Read-outs that look alike come from different tables or passages of the source.

Tests used:
[1] = cited from earlier work
bladder or urethra = details: epidural application, 4 μg/kg (Batra) or 2 μg/kg (Drenger, dogs); cited from earlier work
[2] = cited from earlier work; remark: listed apart in the source
bladder function = details: rat model with rhythmic bladder contraction; cited from earlier work
[3] = system: bladder overactivity induced by oxyhemoglobine; assay: Cystometry with wake rats damaged by oxyhemoglobin (urge incontinence model); format: in vivo, Sprague-Dawley rat
[4] = after use of the substances, OxyHb 2.5 × 10^−4M, buprenorphine 0.005 mg/kg iv where given
[5] = before use of the substances, OxyHb 2.5 × 10^−4M, buprenorphine 0.005 mg/kg iv where given
[6] = change compared to the pre-basis

For “21-cyclopropyl-7-α-[(S)-1-hydroxy-1,2,2-trimethylpropyl]-6,14-endo-ethano-6,7,8,14-tetrahydrooripavine [buprenorphine]”, the plasma concentration ([1]; about 5 minutes after intravenous 0.3 mg) is listed as “about 9 ng/ml”, the plasma concentration ([1]; about 3 hours after intramuscular 0.3-mg dose) is listed as “about 0.4 ng/ml” and the “time of mean peak plasma concentration” value ([1]; intravenous single dose of about 0.3 mg) is listed as ≤ 2 min. For the same compound, the “influence on the function of bladder or urethra” value (bladder or urethra) was “does not have a significant influence”, the Cmax ([2]; 0.4 mg sublingual dose) was 0.50 ng/mL and the Cmax ([2]; 0.8 mg sublingual dose) was 1.04 ng/mL.
In the case of `COc1cccc(C2(O)CCCCC2CN(C)C)c1` (stereo not shown) [tramadol], the “effect on bladder function” value (bladder function) is given as “positive effect”.
For OxyHb, the “ICI inter-contraction interval, after (a)” value [3, 4] was “a: 3.33 ± 0.18 min”, the “MP Micturition pressure, after (a)” value [3, 4] was “a: 97 ± 5 cm H2O” and the “TP threshold pressure, after (a)” value [3, 4] was “a: 9.84 ± 1.56 cm H2O”. The “bladder capacity, after (a)” value [3, 4] was “a: 0.65 ± 0.06 ml”, the “ICI inter-contraction interval, before (b)” value [3, 5] was “b: 4.96 ± 0.33 min” and the “MP Micturition pressure, before (b)” value [3, 5] was “b: 59 ± 8 cm H2O”. The “TP threshold pressure, before (b)” value [3, 5] was “b: 8.72 ± 1.31 cm H2O”, the “bladder capacity, before (b)” value [3, 5] was “b: 0.92 ± 0.10 ml” and the “ICI inter-contraction interval, Diff.” value [3, 6] was “Diff.: −32.9%”. For the same compound, the “MP Micturition pressure, Diff.” value [3, 6] was “Dif.: +64.4%”, the “TP threshold pressure, Diff.” value [3, 6] was “Diff.: +12.8%” and the “bladder capacity, Diff.” value [3, 6] was “Diff.: −29.3%”.
